EC50 and IC50 data for 17 compounds are collected here from patent US10844013B2, “Phenyl amino piperidine mTORC inhibitors and uses thereof” (Navitor Pharmaceuticals, Inc., priority 2016, dated 2020).

Holding throughout (assay type): cell-based
The subject of one test is 293T cells. As to the kind of experiment: ATP/Rotenone assay, glucose dose response, 293T cells. The following applies: Homo sapiens, HEK-293T, 10 uM rotenone pre-treat, 15 min glucose, Celltiter-Glo. On the procedure:
(§1) Example 158: ATP/Rotenone Assay
(§2) Day 1: Plate cells in Corning 96-Well Clear Bottom Black Polystyrene Microplates (corning 3340) in Glucose-free DMEM+10% dFBS • 80 uL/well • 25,000 cells/well for 293T • 10,000 cells/well for MCF7
(§3) Glucose DR to Establish Glucose EC50
(§4) • 1. […] Determine Compound IC50s • 1. 1 h pre-treat Rotenone/compound solution • Make 9× (90 uM) rotenone: 10 mM stock of Rotenone fresh—dilute 1:111× in Glucose-free DMEM). • Make compound dilution series in DMSO then dilute 1:111 in 90 uM rotenone in glucose-free media • Add 10 uL of 9× rotenone/compound solutions per well • 2. Stimulate with glucose for 15 min • Make glucose DR at 10× concentration in glucose-free DMEM • Add 10 uL per well and incubate at 37° C. for 15 min 3. Reconstitute and Measure • Remove plate, immediately add 100 uL of reconstituted Celltiter-Glo reagent (Promega; G7570) per well • Shake plate covered for 10 min at room temperature • Let plate sit for 2-5 min, read luminescence • Calculate IC50 for compounds
Background: ATP-based viability assays read luminescence as a measure of living cells.

Test [1] concerns MCF-7 cells. The test can be described thus: ATP/Rotenone assay, glucose dose response, MCF-7 cells. Conditions: Homo sapiens, MCF7, 10 uM rotenone pre-treat, 15 min glucose, Celltiter-Glo. On the procedure:
as §1, §2, §3, §4

The test system of test [2] is MCF-7 cells. The test can be described thus: Radioactive glucose uptake in MCF-7 cells. Conditions: Homo sapiens, MCF7, 3H-2DG uptake. On the procedure: Example 157: Radioactive Glucose Uptake in MCF-7 Cells
Assay Protocol • 1. Seed approximately 12,000 MCF-7 cells cultured without insulin per well in 96-well plates (BIOCOAT, #356690) and let the cells sit in hood for 30 min. (Cell culture medium: DMEM+10% FBS). • 2. Put the cell culture plates in TC incubator (5% CO2, 37° C.) and incubate overnight. • 3. Take out the cell plates and wash with prewarmed KRH buffer (37° C.) three times using BioTek plate washer. (KRH buffer preparation: 136 mM NaCl, 4.7 mM KCl, 1.25 mM MgCl2, 1.2 mM CaCl2), 20 mM HEPES, 0.1 mg/ml sodium pyruvate, 0.1% BSA, pH 7.4). • 4. Compound preparation and treatment: • a) Add 12 ul compound stock in 100% DMSO to the first column of Echo LDV plate • b) Serially dilute the compound solution in 100% DMSO (4 uL+8 uL DMSO) using Bravo for 9 doses • c) Dispense 350 nL compounds using Echo to the working plate. • d) i) Without compound preincubation condition, dispense 116 uL KRH buffer containing tritiated 2-deoxy-D-glucose (3H-2DG) and 2-deoxy-D-glucose (2DG) to the working plate and mix. • ii. With compound preincubation condition, dispense 110 uL KRH buffer only to the working plates and mix • e) Keep the compound working plate at 37° C. incubator until use • 5. Discard the KRH buffer (cells were kept in KRH buffer for 10-15 min before 2-DG addition) and transfer 100 uL compound working solution out to the cell culture plate using Bravo. Incubate for 20 mins at 37° C. (2DG final at 0.2 mM, 3H-2DG at 10 uCi/mL). • 6. Add prewarmed 50 uL KRH buffer (37° C.) containing 60 mM cold 2DG to the wells to stop the 2DG uptake using Multidrop combi • 7. Wash the cells with prewarmed PBS three times using BioTek plate washer • 8. Add 50 uL lysis buffer (0.1 M NaOH) into the assay plate to lyse the cells using Bravo and shake at 800 rpm for 30 min. • 9. Mix and transfer 20 uL lysate to a new white plate (Corning, #3610) and add 200 uL MicroScint-20 using Bravo • 10. Shake the plate at 1000 rpm for 30 min and count in a MicroBeta plate reader.

Test [3] has as its system pAKT (p-Akt 1/2/3 (Ser473)) in MCF-7 cells. As to the kind of experiment: AlphaLISA Ultra pAKT assay. The following applies: Homo sapiens, MCF7, 2 hours compound incubation. A digest of the protocol:
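MCF-7 cells seeded 20-24 h, medium refreshed for 2 h, then treated with compounds for 2 h at 0.5% final DMSO. Lysates frozen at −80 °C, then pAKT detected by AlphaLISA with acceptor and donor beads, 2 h each.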
In general terms: Bead proximity is the source of the signal in Alpha formats.

Test [4] concerns pS6K1 (p-p70 S6 Kinase (Thr389)) in MCF-7 cells. The test can be described thus: AlphaLISA Ultra pS6K1 assay. The following applies: Homo sapiens, MCF7, 2 h, 2 hours compound incubation. A digest of the protocol:
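MCF-7 cells seeded 20–24 h, medium refreshed 2 h, then treated 2 h with compound (0.5% DMSO final). Lysates probed for Thr389-phosphorylated p70 S6K by AlphaLISA Ultra, 2 h acceptor then 2 h donor bead incubation, read on a multimode reader.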

For orientation: EC50 means the concentration at which the effect is half-maximal. Turning to `O=C[C@H](O)[C@@H](O)[C@H](O)[C@H](O)CO` [glucose], the concentration giving a half-maximal response (EC50) in the test with 293T cells is about 1000 µM; with MCF-7 cells [1] it was about 250 µM.
The term IC50 denotes the point on the concentration scale where inhibition reaches its midpoint. With `Cc1cc(C)c(C(=O)N2CCN(c3cccc(F)c3)C(CO)C2)cc1NC1CCN(c2ccccc2C#N)CC1` (centres unmarked) [I-75, 2-[4-({5-[4-(3-Fluorophenyl)-3-(hydroxymethyl)piperazine-1-carbonyl]-2,4-dimethylphenyl}amino)piperidin-1-yl]benzonitrile], the half-maximal inhibitory concentration (IC50) is 0.01 to 1 µM in the test on MCF-7 cells [2], over 10 µM in test [3] and 0.01 to 1 µM in test [4].
With `Cc1cc(C)c(C(=O)N2CCN(c3cccc(F)c3S(N)(=O)=O)CC2)c(C)c1NC1CCN(c2ccccc2C#N)CC1` [I-14, 2-(4-(3-(1-(2-Cyanophenyl)piperidin-4-ylamino)-2,4,6-trimethylbenzoyl)piperazin-1-yl)-6-fluorobenzenesulfonamide], the values for the IC50 (in the test on MCF-7 cells [2]; in test [3]; in test [4]) were 0.01 to 1 µM, over 10 µM and 0.01 to 1 µM, respectively.
With `Cc1cc(C)c(C(=O)N2CCN(c3ccccc3S(N)(=O)=O)CC2)cc1NC1CCN(c2ccccc2C#N)CC1C` (centres unmarked) [I-43, 2-(4-(5-(1-(2-Cyanophenyl)-3-methylpiperidin-4-ylamino)-2,4-dimethylbenzoyl)piperazin-1-yl)benzenesulfonamide], the 50% inhibitory concentration (IC50) in the test with MCF-7 cells [2] is 0.01 to 1 µM; in test [3], over 10 µM; in test [4], 0.01 to 1 µM.
Turning to `Cc1cc(C)c(C(=O)N2CCN(c3cncc4cn[nH]c34)CC2)cc1NC1CCN(c2ccccc2C#N)CC1` [I-44, 2-(4-(5-(4-(1H-Pyrazolo[4,3-c]pyridin-7-yl)piperazine-1-carbonyl)-2,4-dimethylphenylamino)piperidin-1-yl)benzonitrile], the IC50 is 0.01 to 1 µM in the test on MCF-7 cells [2], over 10 µM in test [3] and 0.01 to 1 µM in test [4].
In the case of `Cc1cc(C)c(C(=O)N2CCN(c3cccnn3)[C@H](CN)C2)c(C)c1NC1CCN(c2ccc(F)cc2C#N)CC1` [I-195, (R)-2-(4-(3-(3-(aminomethyl)-4-(pyridazin-3-yl)piperazine-1-carbonyl)-2,4,6-trimethylphenylamino)piperidin-1-yl)-5-fluorobenzonitrile], the concentration for half-maximal inhibition (IC50) in the test on MCF-7 cells [2] is 3 to 5 µM; in test [3] it was over 10 µM; in test [4], 1 to 3 µM.
The like results for `Cc1cc(C)c(C(=O)N2CCN(c3ncccc3S(N)(=O)=O)CC2)nc1NC1CCN(c2ccccc2C#N)CC1` [I-25, 2-(4-(6-(1-(2-Cyanophenyl)piperidin-4-ylamino)-3,5-dimethylpicolinoyl)piperazin-1-yl)pyridine-3-sulfonamide] were, in that order, 0.01 to 1 µM, over 10 µM and 0.01 to 1 µM.
The like results for `Cc1cc(C)c(C(=O)N2CCN[C@@H](CO)C2)cc1NC1CCN(c2ccccc2C#N)CC1` [I-6, (R)-2-(4-(5-(3-(Hydroxymethyl)piperazine-1-carbonyl)-2,4-dimethylphenylamino)piperidin-1-yl)benzonitrile] were, in that order, over 10 µM, over 10 µM and over 10 µM.
`Cc1cc(C)c(C(=O)N2CCN(c3ccccc3C#N)[C@H](CO)C2)cc1NC1CCN(c2ccccc2C#N)CC1` (single isomer, unassigned) [I-79, 2-[4-({5-[(3S or 3R)-4-(2-Cyanophenyl)-3-(hydroxymethyl)piperazine-1-carbonyl]-2,4-dimethylphenyl}amino)piperidin-1-yl]benzonitrile]: the half-inhibitory concentration (IC50) with MCF-7 cells [2] is 0.01 to 1 µM; in test [3], over 10 µM; in test [4], 0.01 to 1 µM.
As to `Cc1cc(C)c(C(=O)N2CCN(c3ccccn3)[C@H](C)C2)cc1NC1CCN(c2ccccc2C#N)CC1` [I-45, (R)-2-(4-(2,4-Dimethyl-5-(3-methyl-4-(pyridin-2-yl)piperazine-1-carbonyl)phenylamino)piperidin-1-yl) benzonitrile], the IC50 in the test with MCF-7 cells [2] is 0.01 to 1 µM; in test [3] it was over 10 µM; in test [4] it was 0.01 to 1 µM.
With `Cc1cc(C)c(C(=O)N2CCN(c3ccccn3)C(CO)C2)cc1NC1CCN(c2ccccc2C#N)CC1` (single isomer, unassigned) [I-48, 2-[4-({5-[(3R or 3S)-3-(hydroxymethyl)-4-(pyridin-2-yl)piperazine-1-carbonyl]-2,4-dimethylphenyl}amino)piperidin-1-yl]benzonitrile], the IC50 in the test with MCF-7 cells [2] was 0.01 to 1 µM; in test [3], over 10 µM; in test [4], 0.01 to 1 µM.
Take `Cc1cc(C)c(C(=O)N2CCN(c3cccnn3)[C@H](CO)C2)c(C)c1NC1CCN(c2ccc(F)cc2C#N)CC1` [I-141, 5-Fluoro-2-[4-[3-[(3S)-3-(hydroxymethyl)-4-pyridazin-3-yl-piperazine-1-carbonyl]-2,4,6-trimethyl-anilino]-1-piperidyl]benzonitrile]: the half-inhibitory concentration (IC50) is 0.01 to 1 µM with MCF-7 cells [2], over 10 µM in test [3] and 0.01 to 1 µM in test [4].
On to `Cc1nc(C)c(C(=O)N2CCN(c3ccccc3S(N)(=O)=O)CC2)cc1NC1CCN(c2ccccc2C#N)CC1` [I-12, 2-(4-(5-(1-(2-Cyanophenyl)piperidin-4-ylamino)-2,6-dimethylnicotinoyl)piperazin-1-yl)benzenesulfonamide], for which the IC50 (in the test on MCF-7 cells [2]; in test [3]; in test [4]) was over 10 µM each time.
Consider `Cc1cc(C)c(C(=O)N2CCN(c3ccccc3)[C@H](CO)C2)c(C)c1NC1CCN(c2ccncn2)CC1` [I-166, [(3S)-3-(Hydroxymethyl)-4-phenyl-piperazin-1-yl]-[2,4,6-trimethyl-3-[(1-pyrimidin-4-yl-4-piperidyl)amino]phenyl]methanone], for which the IC50 was over 10 µM in the test on MCF-7 cells [2], over 10 µM in test [3] and 1 to 3 µM in test [4].
For the compound `COc1ccccc1N1CCC(Nc2cc(C(=O)N3CCN(c4ccccc4S(N)(=O)=O)CC3)c(C)cc2C)CC1` [I-128, 2-(4-(5-(1-(2-Methoxyphenyl)piperidin-4-ylamino)-2,4-dimethylbenzoyl)piperazin-1-yl)benzenesulfonamide], the 50% inhibitory concentration (IC50) in the test with MCF-7 cells [2] is 0.01 to 1 µM; in test [3], over 10 µM; in test [4], 0.01 to 1 µM.
With `Cc1cc(C)c(C(=O)N2CCN(c3cccnc3S(N)(=O)=O)CC2)c(C)c1NC1CCN(c2ccccc2C#N)CC1` [I-2, 3-(4-(3-(1-(2-Cyanophenyl)piperidin-4-ylamino)-2,4,6-trimethylbenzoyl)piperazin-1-yl)pyridine-2-sulfonamide], the half-maximal inhibitory concentration (IC50) in the test with MCF-7 cells [2] is 0.01 to 1 µM; in test [3], over 10 µM; in test [4] it was 0.01 to 1 µM.
For the compound `Cc1cc(C)c(C(=O)N2CCN(c3ccccc3S(N)(=O)=O)CC2)cc1NC1CN(c2ccccc2C#N)C1` [I-130, 2-(4-(5-(1-(2-Cyanophenyl)azetidin-3-ylamino)-2,4-dimethylbenzoyl)piperazin-1-yl)benzenesulfonamide], the concentration for half-maximal inhibition (IC50) with MCF-7 cells [2] was 3 to 5 µM; in test [3], over 10 µM; in test [4] it was 3 to 5 µM.
